Results: patent publication US20120148510A1, “Compositions and Methods for Improving the Appearance of Facial Pores” (priority 2010, published 2012)
Values joined by “and” are separate entries in the source; they are usually repeats but may differ in a detail not shown here. Equal values may be shown once.

Tests used:
[1] = test system: HAS-2 gene (Hyaluronic Acid Synthase-2 gene); assay: Hyaluronic Acid (HA) Synthase expression, keratinocyte culture, Affymetrix GeneChip microarray; assay type: cell-based; conditions: 10 micro molar hexyldecanol; human telomerized keratinocytes; 6 hours exposure; six GeneChips; p-value=0.0366
Method: B. Hyaluronic Acid (HA) Synthase Expression
Individual experiments (referred to as batches) are generally comprised of 60 Affymetrix GeneChips® (referred to as “instances”) containing 6 vehicle control samples, 2 positive control samples and 52 individual test material samples. Duplication of test materials is performed across batches. In vitro testing is performed in 6-well plates to provide sufficient RNA for GeneChip® analysis (2-4 ug total RNA yield/well). Human telomerized keratinocytes are grown in EpiLife® media with 1× Human Keratinocyte Growth Supplement (Invitrogen) on collagen I coated cell culture flasks and plates (Becton Dickinson). Cells are seeded into 6-well plates at 20,000 cells/cm2 24 hours before chemical exposure. At t=−24 hours cells are trypsinized from T-75 flasks and plated into 6-well plates in basal growth medium. At t=0 media is removed and replaced with the appropriate dosing solution as per the experimental design. Dosing solutions are prepared the previous day in sterile 4 ml Falcon snap cap tubes. After 6 hours of chemical exposure cells are viewed and imaged. […]
2. Transcriptional Screening—RNA Analyzed with Gene Chips […]
Data quality was determined using a variety of statistical measures, including t-tests, scatter biplots, and principal components analysis, depending upon the source and character of the data. […]

IL-1 beta = assay: IL-1 inhibition assay (ICAM-1 promoter/luciferase reporter in ECV304 cells); assay type: cell-based, Human; conditions: 5% concentration of hexyldecanol diluted to 0.05%; four replicates; 10 U/ml IL-1 beta, 4 hours
Method: A. IL-1 Inhibition Assay Protocol
One vial of Human ECV304 cells stably transfected with human ICAM-1 promoter/luciferase reporter construct (pGL3 basic plasmid) and CMV-βgal/RSV-neo plasmid DNA (clone E1.3-22) is placed in a 75 cm flask with 15 ml of complete maintenance media defined as follows: M199 (Gibco, cat #11150-059, 1× liquid, 500 ml containing Earle's salts, Na bicarbonate, and L-glutamine), 10% FBS (certified, heat-inactivated from Gibco, cat #10082-147), 10 ug/ml gentamicin (Gibco, cat #15710-015—10 mg/ml soln (1000×), and 250 μg/ml geneticin antibiotic (active G418 from Gibco, cat 10131-035-50 mg/ml soln).
When cells are 85-90% confluent remove media. Dilute (10×) trypsin-EDTA (Gibco cat #15400-039) to (1×) with HBSS and add 3 ml of (1×) trypsin-EDTA to flask and rinse. Remove trypsin and add a fresh 3 ml/flask and incubate 3-4 min. Strike end of flask to detach cells, and then add 6 ml of complete maintenance medium thoroughly washing the flask and place liquid in a conical tube. Then rinse each flask with an additional 3 ml of maintenance media. Spin tube at 200×g (approx 900 rpm for centrifuge in 3N066B) for 7 minutes. Aspirate supernatant and resuspend cells in 10 ml of maintenance media. Place 10 ul of cell suspension into a hemocytometer and count cells in 5 squares. Use following equation—total# of cells counted ×dilution×104/# of squares counted=cells/ml. […]

facial pores = assay: 9 week in vivo split face study, Pore Area Fraction by image analysis; design: species or system human; conditions: vehicle + 5% Hexyldecanol, twice daily topical on face, 8 weeks, upper cheek area, FIG. 1
Method: A 9 week in vivo study was conducted using a round robin, vehicle controlled, split face design including a 1 week normalization period with 330 subjects.
Treatment Regimen—The regimen begins with a one week washout period. Each morning the subject is to wash their face with a suitable cleanser (e.g., Olay Natural Science Deep Purify Cleanser, available from The Procter & Gamble Company, Cincinnati, Ohio), gently dry with a towel, apply a stock moisturizer (e.g., Vehicle as described in Table 2 with 3% glycerine, no panthenol, and 0.3% disodium EDTA) to the appropriate side of the face, wait 5 minutes, and then apply a UV blocking lotion (e.g., Olay Complete All Day Moisturizing Lotion SPF 15, available from The Procter & Gamble Company, Cincinnati, Ohio). […]
Images of the facial treatment sites are captured at baseline (week 0), and after 4 and 8 weeks of treatment and analyzed for changes to facial pores. […]
The region of interest (ROI), in this case the upper cheek area, was marked manually based on 12 predefined facial landmarks around the cheek—for example, corners of the eye, bridge of the nose, corners of the mouth. The degree of facial pores in the ROI were quantified objectively using image analysis algorithms based on an Optimus software platform. […]

CCCCCCCCC(CO)CCCCCC (stereo not drawn) [Hexyldecanol, 2-hexyldecan-1-ol]
HAS-2 gene transcriptional expression level, average fold change [1]: 1.336 fold change | reduction of IL-1 stimulatory activity (IL-1 beta): 24% and 18% (2×) and 21% | reduction of Pore Area Fraction versus vehicle control (facial pores): significantly (p<=0.10) reducing Pore Area Fraction better than the control
